The values below come from patent US8404670B2 (Sunovion Pharmaceuticals Inc., priority 2009, dated 2013).

The assay deals with T1, human histamine H3 receptor (Homo sapiens, UniProt Q9Y5N1).
T1 construct: host or cells: cells expressing the human H3 receptor
T1 sequence (Q9Y5N1 whole entry): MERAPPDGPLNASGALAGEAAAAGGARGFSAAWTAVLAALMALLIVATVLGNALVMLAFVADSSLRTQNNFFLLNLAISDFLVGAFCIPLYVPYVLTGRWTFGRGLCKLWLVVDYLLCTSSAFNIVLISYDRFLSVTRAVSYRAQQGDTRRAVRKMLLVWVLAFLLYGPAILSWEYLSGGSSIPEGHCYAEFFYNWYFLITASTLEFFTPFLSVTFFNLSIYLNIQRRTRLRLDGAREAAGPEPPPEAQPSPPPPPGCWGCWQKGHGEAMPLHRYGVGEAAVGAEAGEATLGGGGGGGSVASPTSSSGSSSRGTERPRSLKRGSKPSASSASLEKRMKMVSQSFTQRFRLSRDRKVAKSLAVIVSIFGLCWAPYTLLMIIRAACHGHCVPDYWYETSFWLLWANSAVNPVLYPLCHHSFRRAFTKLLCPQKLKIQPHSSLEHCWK
The assay can be described thus: H3 GTPγS assay (SPA method), histamine H3 in vitro assay. In kind it is biochemical. Particulars: GTPγ[35S] binding to membranes of cells expressing human H3; antagonist mode with R-γ-Me-Histamine at EC80 (30 nM); in one embodiment HCl salts tested; read-out: Potency (functional potency as indicated by IC50). As for the experimental part: H3 GTPγS assay (SPA method) was performed at EuroScreen (Belgium, ES-392-C) using conventional methods. Briefly, cells expressing the human histamine H3 receptor were homogenized in 15 mM Tris-HCl pH 7.5, 2 mM MgCl2, 0.3 mM EDTA, and 1 mM EGTA. Membranes were washed twice in the above tris buffer, collected by centrifugation (40,000×g, 25 min), and re-suspended in 75 mM Tris-HCl pH 7.5, 12.5 mM MgCl2, 0.3 mM EDTA, 1 mM EGTA, and 250 mM sucrose. Membranes were frozen in liquid nitrogen until use. On the day of the assay, membranes were thawed and diluted in assay buffer (20 mM HEPES pH 7.4, 100 mM NaCl, 10 μg/ml saponin, 1 mM MgCl2) to give 500 μg/ml and mixed (v/v) with GDP in assay buffer for a final GDP concentration of 10 μM and incubated on ice for at least 15 min. PVT-WGA beads (Amersham, RPNQ001) were diluted in assay buffer at 50 mg/mL and mixed with GTPγ[^35S] (Amersham, SJ1308) diluted in assay buffer to give ˜25,000 dpm/10 μL and mixed vol/vol just before the start of the reaction. The reaction was started by adding 50 μL of test compound, 20 μL of the membranes:GDP mix, 10 μL of buffer, and 20 μL of the GTPγ[^35S]:beads mix in a 96 well plate Optiplate™ (PerkinElmer, 6005299) covered with topseal (TopCount™, PerkinElmer), mixed with an orbital shaker for 2 min, incubated for 1 hour at room temperature, centrifuged for 10 min at 2000 rpm, incubated for 1 h at room temperature, and counted for 1 min in a TopCount™ reader (PerkinElmer). Dose response curves and IC50 values (concentration to inhibit the reaction by 50%) were calculated by nonlinear regression using XLfit software (IDBS).
For antagonists testing, 10 μL of a reference agonist (R-γ-Me-Histamine) instead of 10 μL buffer was added at a concentration corresponding to the EC80 (30 nM). Control ligands were R-γ-Me-Histamine (Tocris, 0569), Imetit (Sigma, I-135), Thioperamide (Tocris, 0644), and Clobenpropit (Tocris, 0754) diluted in assay buffer.
The compounds provided herein were tested in the histamine H3 in vitro assay. In one embodiment, the respective HCl salts of the compounds provided herein were prepared using standard chemical procedures and tested in the histamine H3 in vitro assay.
For orientation: IC50 means the point on the concentration scale where inhibition reaches its midpoint. In the case of `c1cnc(-c2ccc3c(c2)nc2n3CCN(C3CCC3)CC2)nc1` [Compound 123, 3-cyclobutyl-8-(pyrimidin-2-yl)-2,3,4,5-tetrahydro-1H-benzo[4,5]imidazo[1,2-d][1,4]diazepine], the IC50 was at most 100 nM.
The same measure for `c1cc(-c2ccc3c(c2)nc2n3CCN(C3CCC3)CC2)ncn1` [Compound 124, 3-cyclobutyl-8-(pyrimidin-4-yl)-2,3,4,5-tetrahydro-1H-benzo[4,5]imidazo[1,2-d][1,4]diazepine]: at most 100 nM.
For `c1cnnc(-c2ccc3c(c2)nc2n3CCN(C3CCC3)CC2)c1` [Compound 125, 3-cyclobutyl-8-(pyridazin-3-yl)-2,3,4,5-tetrahydro-1H-benzo[4,5]imidazo[1,2-d][1,4]diazepine], the IC50 is at most 100 nM.
In the case of `c1ncc(-c2ccc3c(c2)nc2n3CCN(C3CCC3)CC2)cn1` [Compound 126, 3-cyclobutyl-8-(pyrimidin-5-yl)-2,3,4,5-tetrahydro-1H-benzo[4,5]imidazo[1,2-d][1,4]diazepine], the IC50 is at most 10 nM.
`c1cc(-c2ccc3c(c2)nc2n3CCN(C3CCC3)CC2)cnn1` [Compound 127, 3-cyclobutyl-8-(pyridazin-4-yl)-2,3,4,5-tetrahydro-1H-benzo[4,5]imidazo[1,2-d][1,4]diazepine]: the IC50 is at most 100 nM.
`c1cc2c(cc1C1CCCN(C3CCC3)C1)nc1n2CCN(C2CCC2)CC1` (centres unmarked) [Compound 128, 3-cyclobutyl-8-(1-cyclobutylpiperidin-3-yl)-2,3,4,5-tetrahydro-1H-benzo[4,5]imidazo[1,2-d][1,4]diazepine]: the IC50 is at most 10 nM.
The same measure for `c1cnc(N2CCCC(c3ccc4c(c3)nc3n4CCN(C4CCC4)CC3)C2)cn1` (centres unmarked) [Compound 129, 3-cyclobutyl-8-(1-(pyrazin-2-yl)piperidin-3-yl)-2,3,4,5-tetrahydro-1H-benzo[4,5]imidazo[1,2-d][1,4]diazepine]: at most 10 nM; for `c1cnc(N2CCCC(c3ccc4c(c3)nc3n4CCN(C4CCC4)CC3)C2)nc1` (centres unmarked) [Compound 130, 3-cyclobutyl-8-(1-(pyrimidin-2-yl)piperidin-3-yl)-2,3,4,5-tetrahydro-1H-benzo[4,5]imidazo[1,2-d][1,4]diazepine]: at most 100 nM; for `c1cc(-c2ccc3c(c2)nc2n3CCN(C3CCC3)CC2)nc(N2CCCC2)n1` [Compound 131, 3-cyclobutyl-8-(2-(pyrrolidin-1-yl)pyrimidin-4-yl)-2,3,4,5-tetrahydro-1H-benzo[4,5]imidazo[1,2-d][1,4]diazepine]: at most 10 nM.
For `COc1nccc(-c2ccc3c(c2)nc2n3CCN(C3CCC3)CC2)n1` [Compound 132, 3-cyclobutyl-8-(2-methoxypyrimidin-4-yl)-2,3,4,5-tetrahydro-1H-benzo[4,5]imidazo[1,2-d][1,4]diazepine], the IC50 is at most 100 nM.
The figure for `c1cc2c(cc1-c1ccc(N3CCCC3)nn1)nc1n2CCN(C2CCC2)CC1` [Compound 133, 3-cyclobutyl-8-(6-(pyrrolidin-1-yl)pyridazin-3-yl)-2,3,4,5-tetrahydro-1H-benzo[4,5]imidazo[1,2-d][1,4]diazepine] is at most 100 nM; for `COc1ccc(-c2ccc3c(c2)nc2n3CCN(C3CCC3)CC2)nn1` [Compound 134, 3-cyclobutyl-8-(6-methoxypyridazin-3-yl)-2,3,4,5-tetrahydro-1H-benzo[4,5]imidazo[1,2-d][1,4]diazepine] it is at most 100 nM.
The same measure for `c1cc(-c2ccc3c(c2)nc2n3CCN(C3CCC3)CC2)nc(N2CCCC2)c1` [Compound 135, 3-cyclobutyl-8-(6-(pyrrolidin-1-yl)pyridin-2-yl)-2,3,4,5-tetrahydro-1H-benzo[4,5]imidazo[1,2-d][1,4]diazepine]: at most 100 nM; for `CN1CCN(c2cccc(-c3ccc4c(c3)nc3n4CCN(C4CCC4)CC3)n2)CC1` [Compound 136, 3-cyclobutyl-8-(6-(4-methylpiperazin-1-yl)pyridin-2-yl)-2,3,4,5-tetrahydro-1H-benzo[4,5]imidazo[1,2-d][1,4]diazepine]: at most 100 nM.
